Measurements: PMC11157767 (Molecular Cancer, 2024)

Tested on: TFG-MET allograft tumors
Assay: RNA-sequencing, differential expression and GSEA of TFG-MET allograft tumors
Format: in vivo, mouse
Procedure: Error bars display standard error of mean, statistical significance was determined using t-test analysis. (****;p<0.0001, ***;p<0.001, **;p<0.01, *;p<0.05). […] Each dot represents an individual replicate. Error bars display standard error of the mean.
Each dot represents one gene.

[1] = GSEA CAP vs Veh, C5 GO CC, padj 0.0837675
[2] = GSEA CAP vs Veh, C5 GO CC, padj 0.118081
[3] = GSEA CAP vs Veh, C5 GO CC, padj 0.15025
[4] = GSEA CAP vs Veh, C5 GO CC, padj 0.172143
[5] = GSEA CAP vs Veh, C5 GO CC, padj 0.185573
[6] = GSEA CAP vs Veh, C5 GO CC, padj 0.189724
[7] = GSEA CAP vs Veh, C5 GO CC, padj 0.205885
[8] = GSEA CAP vs Veh, C5 GO CC, padj 0.207988
[9] = capmatinib vs vehicle, PD cohort

CNC(=O)c1ccc(-c2cnc3ncc(Cc4ccc5ncccc5c4)n3n2)cc1F [Capmatinib]
NES GOCC_TRIGLYCERIDE_RICH_PLASMA_LIPOPROTEIN_PARTICLE [1]: 1.6067 | NES GOCC_VESICLE_TETHERING_COMPLEX [1]: 1.4789 | NES GOCC_IMMUNOLOGICAL_SYNAPSE (GSEA CAP vs Veh, C5 GO CC, padj 0.0851978): 1.513 | NES GOCC_TOR_COMPLEX (GSEA CAP vs Veh, C5 GO CC, padj 0.0863609): -1.558 | NES GOCC_POTASSIUM_CHANNEL_COMPLEX (GSEA CAP vs Veh, C5 GO CC, padj 0.0898434): 1.3322 | NES GOCC_PHOTORECEPTOR_OUTER_SEGMENT (GSEA CAP vs Veh, C5 GO CC, padj 0.0912598): 1.398 | NES GOCC_NON_MOTILE_CILIUM (GSEA CAP vs Veh, C5 GO CC, padj 0.0963826): 1.327 | NES GOCC_COLLAGEN_TRIMER (GSEA CAP vs Veh, C5 GO CC, padj 0.100203): 1.361 | NES GOCC_CYCLIN_DEPENDENT_PROTEIN_KINASE_HOLOENZYME_COMPLEX (GSEA CAP vs Veh, C5 GO CC, padj 0.101289): -1.485 | NES GOCC_PHAGOPHORE_ASSEMBLY_SITE_MEMBRANE (GSEA CAP vs Veh, C5 GO CC, padj 0.101632): 1.59 | NES GOCC_MICROTUBULE_END (GSEA CAP vs Veh, C5 GO CC, padj 0.104588): -1.488 | NES GOCC_MRNA_CLEAVAGE_AND_POLYADENYLATION_SPECIFICITY_FACTOR_COMPLEX (GSEA CAP vs Veh, C5 GO CC, padj 0.106777): -1.514 | NES GOCC_PERICENTRIOLAR_MATERIAL (GSEA CAP vs Veh, C5 GO CC, padj 0.107544): -1.541 | NES GOCC_SPERM_MIDPIECE (GSEA CAP vs Veh, C5 GO CC, padj 0.11014): 1.543 | NES GOCC_FILAMENTOUS_ACTIN (GSEA CAP vs Veh, C5 GO CC, padj 0.113803): -1.495 | NES GOCC_CONDENSED_NUCLEAR_CHROMOSOME (GSEA CAP vs Veh, C5 GO CC, padj 0.117551): -1.436 | NES GOCC_ENDOPLASMIC_RETICULUM_EXIT_SITE [2]: -1.477 | NES GOCC_MITOTIC_SPINDLE [2]: -1.3459 | NES GOCC_TERTIARY_GRANULE_LUMEN [2]: 1.448 | NES GOCC_MICROTUBULE_ORGANIZING_CENTER (GSEA CAP vs Veh, C5 GO CC, padj 0.119924): -1.201 | NES GOCC_ESC_E_Z_COMPLEX (GSEA CAP vs Veh, C5 GO CC, padj 0.125326): -1.503 | NES GOCC_MITOCHONDRIAL_PROTEIN_CONTAINING_COMPLEX (GSEA CAP vs Veh, C5 GO CC, padj 0.144325): 1.2339 | NES GOCC_MICROBODY_LUMEN [3]: 1.378 | NES GOCC_PLATELET_DENSE_GRANULE [3]: 1.446 | NES GOCC_POSTSYNAPTIC_CYTOSOL [3]: -1.504 | NES GOCC_DNA_HELICASE_COMPLEX (GSEA CAP vs Veh, C5 GO CC, padj 0.150544): -1.462 | NES GOCC_H4_H2A_HISTONE_ACETYLTRANSFERASE_COMPLEX (GSEA CAP vs Veh, C5 GO CC, padj 0.153451): -1.479 | NES GOCC_T_TUBULE (GSEA CAP vs Veh, C5 GO CC, padj 0.166785): 1.333 | NES GOCC_CELL_DIVISION_SITE [4]: -1.364 | NES GOCC_CILIARY_MEMBRANE [4]: 1.297 | NES GOCC_NUCLEAR_INNER_MEMBRANE [4]: -1.39 | NES GOCC_SPERM_PRINCIPAL_PIECE [4]: 1.449 | NES GOCC_PROTEIN_KINASE_COMPLEX (GSEA CAP vs Veh, C5 GO CC, padj 0.174487): -1.355 | NES GOCC_SARCOPLASMIC_RETICULUM_MEMBRANE (GSEA CAP vs Veh, C5 GO CC, padj 0.176238): 1.347 | NES GOCC_TRANSCRIPTION_FACTOR_TFIID_COMPLEX (GSEA CAP vs Veh, C5 GO CC, padj 0.181046): -1.393 | NES GOCC_ENDOSOME_LUMEN [5]: 1.406 | NES GOCC_SPECIFIC_GRANULE_LUMEN [5]: 1.358 | NES GOCC_CLATHRIN_ADAPTOR_COMPLEX [6]: 1.366 | NES GOCC_MITOTIC_SPINDLE_POLE [6]: -1.382 | NES GOCC_MEMBRANE_MICRODOMAIN (GSEA CAP vs Veh, C5 GO CC, padj 0.192589): 1.19 | NES GOCC_CELL_BODY_MEMBRANE (GSEA CAP vs Veh, C5 GO CC, padj 0.197703): 1.35 | NES GOCC_VACUOLAR_PROTON_TRANSPORTING_V_TYPE_ATPASE_COMPLEX (GSEA CAP vs Veh, C5 GO CC, padj 0.198626): 1.413 | NES GOCC_DENDRITIC_SHAFT [7]: 1.333 | NES GOCC_NUCLEAR_OUTER_MEMBRANE [7]: -1.409 | NES GOCC_SAGA_TYPE_COMPLEX (GSEA CAP vs Veh, C5 GO CC, padj 0.206418): -1.409 | NES GOCC_CLATHRIN_COAT [8]: 1.308 | NES GOCC_PHOTORECEPTOR_INNER_SEGMENT [8]: 1.275 | NES GOCC_INTEGRAL_COMPONENT_OF_SYNAPTIC_VESICLE_MEMBRANE (GSEA CAP vs Veh, C5 GO CC, padj 0.210702): 1.319 | expression of Mapk signature genes in tumors (RNA-sequencing of treated allograft tumors): significant downregulation | GSEA NES, PID_Atm_pathway [9]: -1.751 | GSEA NES, PID_Atr_pathway [9]: -2.041 | expression of genes involved in the DNA repair machinery (capmatinib-treated vs vehicle tumors, PD cohort): downregulated
